Assays:
Conditions in all cases: exposure time 48 h
[1] = tested on: Caenorhabditis elegans N2; experiment: AC50 for larval growth inhibition (Hill fit); higher = less potent
Outline: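 Synchronised C. elegans N2 L1 larvae, 50 per well in 96-well plates, were grown at 20°C for 48 h in K-medium with killed OP50, 1% DMSO and 0.5–200 µM chemical. Worm size was read on a COPAS Biosort as extinction, log-transformed and averaged per well, and only wells holding at least 10 worms were kept. AC50 was obtained by a constrained Hill fit using weighted genetic-algorithm regression, with out-of-range values censored.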

[2] = tested on: Caenorhabditis elegans N2; experiment: lowest effective concentration for larval growth inhibition (size below effect threshold); higher = less potent
Outline: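 Worm size was taken as per-worm extinction on the Biosort, log-transformed and turned into well means. The larvae (C. elegans N2, L1 stage, 50 per 96-well) had spent 48 h at 20°C in K-medium with killed bacteria, 1% DMSO and 0.5, 1, 5, 10, 50, 100 or 200 µM chemical. The lowest effective concentration marks the first dose where the plate-adjusted mean size drops under a cutoff and remains under it at every higher dose; the cutoff is 5.665.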

[3] = tested on: Caenorhabditis elegans N2; experiment: mean nematode size ln(EXT) after 48 h, plate-adjusted (DMSO control set to 6) (ln(EXT), control-adjusted); higher = larger nematodes / less growth inhibition
Outline: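 Synchronised C. elegans N2 L1 larvae were grown for 48 h at 20°C in K-medium containing killed OP50, 1% DMSO and 0.5–200 µM chemical, at 50 per well and 4–6 wells per treatment. The Biosort recorded extinction for each worm, and a growth model removed debris. Worm size was obtained by natural-logging these values and averaging them per well. For plate adjustment, the vehicle control mean was subtracted and 6 was added.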

Compound	AC50 for larval growth inhibition [1] [µM]	lowest effective concentration [2] [µM]	mean nematode size ln(EXT) (ln) ([3]; 0.5 µM)	mean nematode size ln(EXT) (ln) ([3]; 1 µM)	mean nematode size ln(EXT) (ln) ([3]; 5 µM)	mean nematode size ln(EXT) (ln) ([3]; 10 µM)	mean nematode size ln(EXT) (ln) ([3]; 50 µM)	mean nematode size ln(EXT) (ln) ([3]; 100 µM)	mean nematode size ln(EXT) (ln) ([3]; 200 µM)
CN(C)c1nc(=O)n(C2CCCCC2)c(=O)n1C [Hexazinone]	109	200	5.85	5.89	5.89	5.92	6	5.92	5.62
CCOP(=S)(OCC)SCSCC [Phorate]	> 200	100	5.9	5.87	5.8	5.76	5.68	5.55	5.21
COP(=O)(OC)OC=C(Cl)Cl [Dichlorvos]	80.4	50	6.07	6.12	5.84	5.87	5.05	4.4	3.3
O=C(Nc1ccccc1)c1ccccc1I [Benodanil]	39.3	5	5.99	5.98	5.62	5.66	4.16	4.19	3.37
ClC(Cl)=C(c1ccc(Cl)cc1)c1ccc(Cl)cc1 [p,p'-DDE]	2.64	5	5.79	5.71	4.36	4.21	3.94	3.93	3.67
Cc1cccc(N)c1N [3-Methylbenzene-1,2-diamine]	> 200	200	6.01	5.93	5.87	5.79	5.78	5.79	5.05
CCN(CC)CCNc1ccc(CNC=O)c2sc3ccc(OC)cc3c(=O)c12	107	10	5.89	5.87	5.75	5.65	5.25	4.73	3.81
OCCC(F)(F)C(F)(F)C(F)(F)C(F)(F)C(F)(F)C(F)(F)F [1-Octanol, 3,3,4,4,5,5,6,6,7,7,8,8,8-tridecafluoro-]	> 200	200	5.87	5.92	5.88	5.94	5.91	5.77	5.65
O=C1CN(/N=C/c2ccc([N+](=O)[O-])o2)C(=O)N1 [Nitrofurantoin]	> 200	200	5.9	5.88	5.88	5.88	5.81	5.84	5.46
